Literature values, collected in publication PMC6370995, “Phase I study of PF‐04895162, a Kv7 channel opener, reveals unexpected hepatotoxicity in healthy subjects, but not rats or monkeys: clinical evidence of disrupted bile acid homeostasis” (Pharmacology Research & Perspectives, 2019).

How the values were obtained:
patients = test system: patients; set-up: method as in PMID 27178047; conditions: 50 mg once daily, Phase 3 clinical study; cited from earlier work
BSEP = test system: BSEP; set-up: method as in PMID 11309550; conditions: cited from earlier work

Structure (SMILES) | clinical liver finding (patients) | BSEP inhibition potency (BSEP)
Cc1cc(OCCCS(C)(=O)=O)cc(C)c1-c1cccc(COc2ccc3c(c2)OC[C@H]3CC(=O)O)c1 [TAK‐875] | clinical hepatotoxicity in a small number of patients | –
COc1ccccc1Oc1c(NS(=O)(=O)c2ccc(C(C)(C)C)cc2)nc(-c2ncccn2)nc1OCCO [bosentan] | – | ~ 12 μmol/L
